Experimental data published in patent US9067898B1, “Isothiazole derivatives as GPR120 agonists for the treatment of type II diabetes” (Janssen Pharmaceutica NV, priority 2014, dated 2015).

What follows are compounds tested on C57B16 mice on a high fat diet (DIO) (assay: GPR120 DIO mice OGTT screening). Conditions: 10 mg/kg dosed 30 min before PO glucose, change from vehicle.
Format: in vivo, mouse
Design: DIO Lowering Glucose AUC (−30 to 90) @ 10 mg/kg: unit not given here
Method: 18-22 week old, C57B16 mice on a high fat diet (60% HFD) for 12-16 weeks (ave. body weight ˜37-41 g) were fasted for 6 hr, with removal of food occurring at 7 am on the morning of the study. The animals were sorted into treatment groups the day before the study by body weight. Animals outside the bounds of ˜30-50 g were left out of the study. The animals had been handled and shammed a total of 5-8 days (1-3 days immediately prior to the study). Glucose (in 1 mL syringes) was drawn up the morning of the study. Test compounds were kept spinning and were only drawn into 1 ml syringes prior to study commencement. Animals were bled via tail snip to determine basal glucose levels prior to dosing of treatments. An Ascensia BREEZE Blood Glucose Monitoring System by Bayer was used for determining glucose levels.
Animals were moved into the testing room at ˜9-11 am, to yield them time to acclimate. The bleeds and dosing started at approximately 1 pm in 30-second intervals per animal. All groups were dosed 30 minutes prior to glucose administration at a dose volume of 10 ml/kg (the dose volume was calculated separately for each individual animal). Test compounds were administered at one or more of the following dosages: 0.1 mg/kg, 0.3 mg/kg, 1 mg/kg, 3 mg/kg and 10 mg/kg.
Thirty minutes after the first dose (with test compound) animals were bled again for a second baseline, or T=0, and immediately dosed with glucose (20% solution; TEKNOVA, 250 ml sterile bottle w/catalogue number G0525) via a PO injection. The exact dose volume for glucose was also calculated separately for each individual animal.
Blood glucose was measured at 15, 30, 45, 60, and 90 minutes post-glucose administration via the snipped tail. If an animal reached a value of “HI”, the upper limit of the glucometer (600 mg/dl) was substituted as the blood glucose value and the study was analyzed as normal with no exclusions. If 50% or more of any treatment group reaches a “HI” value at least once, the study was considered invalid and repeated. Glucose values were typed into an EXCEL spreadsheet where they were used to calculate glucose AUC and delta AUC post-compound and post-glucose. The glucose excursion curves and the different versions of the AUC's were graphed in GraphPad Prism 5.
Note: All statistics completed in this study were completed using the statistical software package GraphPad Prism 5. Standard procedures for analyzing data sets from screening GPR120 compounds in DIO mouse OGTT's were as listed here below. In addition to the statistics that were run using GraphPad Prism 5, Microsoft Excel was used to calculate the percent changes in AUC from vehicle groups as detailed below.
Change from −30 to 0 BSLN Glucose, Raw Glucose AUC −30 to 90 min, Delta Glucose AUC −30 to 90 min, Raw Glucose AUC 0 to 90 min, Delta Glucose AUC 0 to 90 min were analyzed using Column Statistics Analysis, with mean values used to calculate % change from the vehicle mean group, as well as mean, SEM and/or % change from vehicle, where appropriate; and using One-Way ANOVA w/a Tukey Post-Test (Comparing All Pairs of Columns) with each treatment group examined to see if it was statistically significant compared to vehicle (*=P<0.05, **=P<0.01, ***=P<0.001).
Representative compounds of the present invention were tested according to the procedure as described in Biological Example 3, with results as listed in Table 2, below. Where a compound was tested more than once, each result is listed individually.

Compound	DIO Lowering Glucose AUC (−30 to 90) @ 10 mg/kg
O=C(O)CCc1cc(F)c(OCc2c(-c3ccc(Cl)cc3F)nsc2C(F)(F)F)c(F)c1 [Cpd 74, 3-(4-((3-(4-chloro-2-fluorophenyl)-5-(trifluoromethyl)isothiazol-4-yl)methoxy)-3,5-difluorophenyl)propanoic acid]	−0.71
CCc1ccc(-c2nsc(C(F)(F)F)c2COc2ccc(CCC(=O)O)c(F)c2F)cc1 [Cpd 73, 3-(4-((3-(4-ethylphenyl)-5-(trifluoromethyl)isothiazol-4-yl)methoxy)-2,3-difluorophenyl)propanoic acid]	−0.51
Cc1ccc(-c2nsc(C(F)(F)F)c2COc2c(F)cc(CC(C)C(=O)O)cc2F)c(F)c1 (stereo not shown) [Cpd 76, 3-(3,5-difluoro-4-[[3-(2-fluoro-4-methylphenyl)-5-(trifluoromethyl)-1,2-thiazol-4-yl]methoxy]phenyl)-2-methylpropanoic acid]	−0.8
3-(4-[[3-(4-ethylphenyl)-5-(trifluoromethyl)-1,2-thiazol-4-yl]methoxy]-3,5-difluorophenyl)propanoic acid [Cpd 70]	−0.5
O=C(O)CCc1cc(F)c(OCc2c(-c3ccc(Cl)c(F)c3)nsc2C(F)(F)F)c(F)c1 [Cpd 67, 3-(4-((3-(4-chloro-3-fluorophenyl)-5-(trifluoromethyl)isothiazol-4-yl)methoxy)-3,5-difluorophenyl)propanoic acid]	−0.78
O=C(O)CCc1cc(F)c(OCc2c(C3CCCC3)nsc2C(F)(F)F)c(F)c1 [Cpd 71, 3-(4-[[3-cyclopentyl-5-(trifluoromethyl)-1,2-thiazol-4-yl]methoxy]-3,5-difluorophenyl)propanoic acid]	−0.52
Cc1ccc(-c2nsc(C(F)(F)F)c2COc2c(F)cc(CCC(=O)O)cc2F)c(F)c1 [Cpd 65, 3-(3,5-difluoro-4-[[3-(2-fluoro-4-methylphenyl)-5-(trifluoromethyl)-1,2-thiazol-4-yl]methoxy]phenyl)propanoic acid]	−0.61

Same assay, conditions: Mus musculus, read-out: DIO Lowering Glucose AUC (−30 to 90) @ 10 mg/kg, heading: DIO Lowering Glucose AUC @ 10 mg/kg, 10 mg/kg dosed 30 min before PO glucose, change from vehicle

Compound	change in vivo at 10 mg/kg
CCc1ccc(-c2cc(F)sc2COc2ccc(CCC(=O)O)c(C)c2C)cc1 [Cpd 1, 3-(4-[[3-(4-ethylphenyl)-5-fluorothiophen-2-yl]methoxy]-2,3-dimethylphenyl)propanoic acid]	-26%
Cc1c(CCC(=O)O)ccc(OCc2sc(F)cc2-c2ccc(Cl)cc2)c1C [Cpd 3, 3-(4-((3-(4-chlorophenyl)-5-fluorothiophen-2-yl)methoxy)-2,3-dimethylphenyl)propanoic acid]	-49%

The compounds below were run on C57bl/6J mice (assay: GPR120 C57bl6 mouse IPGTT). Conditions: 10 mg/kg dosed 30 min before glucose IP 1.5 g/kg.
Format: in vivo
Method: Male, C57bl/6J Mice were ordered in at 8 weeks of age from Jackson Labs. Individual mice weighed anywhere in the range of 25-30 grams on study day. The mice were fasted, with removal of food occurring at 7 am on the morning of the study. Animals were moved into the room at 10:00 am, to give them time to acclimate. Glucose (insulin syringes) was drawn up either the night before or the morning of the study. Glucose was dosed (IP) at 1.5 g/kg at 7.5 ml/kg (20% glucose straight TEKNOVA, 250 ml sterile bottle w/catalogue number G0525). Test compounds were kept spinning and were only drawn into the syringes prior to study commencement. Animals were bled via tail snip to determine basal glucose levels prior to dosing of treatments. An Ascensia BREEZE Blood Glucose Monitoring System by Bayer (using unique 10-test disks) was used for determining glucose levels. The bleeds started at approximately 12:45 pm and dosing started, at 1-minute intervals, immediately after. All groups were dosed 30 minutes prior to glucose administration at a dose volume of 10 ml/kg (the dose volume was calculated separately for each individual animal). Thirty minutes after the first dose animals were bled again for a second baseline, or T=0, and immediately dosed with glucose via an i.p. injection. The exact dose volume for glucose was also calculated separately for each individual animal. […]

Compound	C57 IPGTT 10 mg/kg
3-(4-[[3-(4-ethylphenyl)-5-(trifluoromethyl)-1,2-thiazol-4-yl]methoxy]-1-benzothiophen-7-yl)propanoic acid [Cpd 92]	−41

What follows are compounds tested on C57bl/6J mice (assay: C57bl6 mouse OGTT). Conditions: 3 mg/kg dosed 30 min before glucose PO 3 g/kg.
Format: in vivo
Method: Male, C57bl/6J Mice were ordered in at 8 weeks of age from Jackson Labs. Individual mice weighed anywhere in the range of 25-30 grams on study day. The mice were fasted, with removal of food occurring at 7 am on the morning of the study. Animals were moved into the room at 10:00 am, to give them time to acclimate. Glucose (insulin syringes) was drawn up either the night before or the morning of the study. Glucose was dosed (IP) at 1.5 g/kg at 7.5 ml/kg (20% glucose straight TEKNOVA, 250 ml sterile bottle w/catalogue number G0525). Test compounds were kept spinning and were only drawn into the syringes prior to study commencement. Animals were bled via tail snip to determine basal glucose levels prior to dosing of treatments. An Ascensia BREEZE Blood Glucose Monitoring System by Bayer (using unique 10-test disks) was used for determining glucose levels. The bleeds started at approximately 12:45 pm and dosing started, at 1-minute intervals, immediately after. All groups were dosed 30 minutes prior to glucose administration at a dose volume of 10 ml/kg (the dose volume was calculated separately for each individual animal). Thirty minutes after the first dose animals were bled again for a second baseline, or T=0, and immediately dosed with glucose via an i.p. injection. The exact dose volume for glucose was also calculated separately for each individual animal. Glucose measurements were taken at −30 min prior to compound dose, at t=0 (immediately prior to glucose dose), and at 15, 30, 45, 60, 90 min post glucose dose.
Glucose values were entered into an Excel sheet and graphed in GraphPad Prism. The following were calculated from Prism: Change from −30 to 0 BSLN Glucose, Raw Glucose AUC −30 to 90 min, Delta Glucose AUC −30 to 90 min, Raw Glucose AUC 0 to 90 min, Delta Glucose AUC 0 to 90 min.
The assay design is the same as that described above for the C57bl6 mouse IPGTT. The difference is that glucose was dosed PO at 3 g/kg, 7.5 ml/kg of 40% glucose.
Representative compounds of the present invention were tested according to the procedures as described in Biological Example 4, above with results as listed in Table 3, below. […] Where a compound was tested more than once, each result is listed individually.

Compound	C57 OGTT 3 mg/kg
3-(4-[[3-(4-ethylphenyl)-5-(trifluoromethyl)-1,2-thiazol-4-yl]methoxy]-1-benzothiophen-7-yl)propanoic acid [Cpd 92]	−39
Cc1c(CCC(=O)O)ccc(OCc2c(-c3ccc(Cl)cc3)nsc2C(F)(F)F)c1C [Cpd 142, 3-(4-((3-(4-chlorophenyl)-5-(trifluoromethyl)isothiazol-4-yl)methoxy)-2,3-dimethylphenyl)propanoic acid]	−49
CCc1ccc(-c2snc(Cl)c2COc2ccc(CCC(=O)O)c(C)c2C)cc1 [Cpd 85, 3-(4-[[3-chloro-5-(4-ethylphenyl)-1,2-thiazol-4-yl]methoxy]-2,3-dimethylphenyl)propanoic acid]	−49
OCCCc1cc(F)c(OCc2c(-c3ccc(Cl)cc3)nsc2C(F)(F)F)c(F)c1 [Cpd 100, 3-(4-[[3-(4-chlorophenyl)-5-(trifluoromethyl)-1,2-thiazol-4-yl]methoxy]-3,5-difluorophenyl)propan-1-ol]	−39
O=C(O)CCc1cc(F)c(OCc2c(C3CCCC3)nsc2C(F)(F)F)c(F)c1 [Cpd 71, 3-(4-[[3-cyclopentyl-5-(trifluoromethyl)-1,2-thiazol-4-yl]methoxy]-3,5-difluorophenyl)propanoic acid]	−37
OCCCc1ccc(OCc2c(Cl)nsc2-c2ccc(Cl)cc2)c(F)c1F [Cpd 102, 3-(4-((3-chloro-5-(4-chlorophenyl)isothiazol-4-yl)methoxy)-2,3-difluorophenyl)propan-1-ol]	−32
